Measured values from patent US20120010148A1, “COMBINATION THERAPIES USING NAP” (ALLON THERAPEUTICS INC., priority 2008, published 2012).
“Also recorded” adds a separate entry of the source.

What was measured:
STOP+/− mice = test: Object recognition and discrimination test; type: in vivo, mouse
Method: The NAP vehicle solution (termed DD), included the following ingredients (per milliliter): 7.5 mg of NaCl, 1.7 mg of citric acid monohydrate, 3 mg of disodium phosphate dihydrate, and 0.2 mg of benzalkonium chloride solution (50%) (Alcalay R N et al., Neurosci Lett, 361(1-3): 128-131 (2004)). NAP or vehicle solution (DD) was administered to mice hand-held in a semisupine position with nostrils facing the investigator. A pipette tip was used to administer 2.5 μl/nostril. The mouse was hand-held until the solution was totally absorbed (10 s). […]
The test is based on visual discrimination between two different objects in an arena of 30 cm×40 cm. […] One hour after the daily intranasal NAP treatment, or clozapine injection, each male mouse was exposed to two identical objects for 5 minutes and the time spent sniffing/touching each object was measured (first daily session). Three hours later, the mice were exposed to one familiar and one novel object for 3 minutes and the time spent sniffing/touching each object was measured again (second session, measuring visual memory). The data was analyzed using two different methods. The first method measured the time spent exploring an object, novel or familiar, and compared the two. The second method evaluated the discrimination capacity of the mice between the novel object and the familiar object using the following formula. […]

[1] = test system: TNF-α, interleukin-16 (IL-16), and IL-12 in macrophages; conditions: cited from earlier work
cell cultures = conditions: cited from earlier work

SMILES: CC[C@H](C)[C@H](NC(=O)[C@H](CO)NC(=O)[C@@H](NC(=O)[C@@H]1CCCN1C(=O)[C@H](C)NC(=O)[C@@H](N)CC(N)=O)C(C)C)C(=O)N1CCC[C@H]1C(=O)N[C@@H](CCC(N)=O)C(=O)O [NAP]
- object recognition / discrimination of novel object (STOP+/− mice; Example 3, STOP+/− male mice, 3 h after first session, NAP intranasal 0.5 μg/mouse/day or clozapine 10 mg/kg IP, FIG. 9): ameliorated completely the cognitive impairment; also recorded: significantly beneficial
- object recognition, discrimination capacity D2 (memory scores) (STOP+/− mice; Example 4, STOP+/− mice, NAP 0.5 microgram/mouse/day, clozapine 3 mg/kg/day, versus pooled controls, FIG. 12): effective to increase memory scores
- key inflammatory cytokines TNF-α, IL-16 and IL-12 [1]: downregulates
- neuroprotective activity against a wide variety of toxins (cell cultures): neuroprotective activity at femtomolar concentrations
